Experimental data: PMC11040670, “Mechanistic and Kinetic Insights into Cellular Uptake of Biomimetic Dinitrosyl Iron Complexes and Intracellular Delivery of NO for Activation of Cytoprotective HO-1” (JACS Au, 2024)
Several values for one entry are separate records, joined by “and”; a condition that tells them apart may be missing. Equal values may be shown once. Marks after values point to notes of the source that are not given here.

How the values were obtained:
[1] = tested on: MSC; assay: Whole-cell EPR: cellular uptake and intracellular formation/decomposition of mononuclear DNIC in MSC; assay type: cell-based, human; details: for tmax for cellular uptake and intracellular transformation (whole-cell EPR): normoxia, 100 μM DNIC–COOH or 2.5 μM DNIC–COOMe
Method: Cellular uptake of DNIC–COOH and intracellular formation/decomposition of mononuclear DNICs in MSC/N2a/HCEC cells were investigated using EPR spectroscopy. Briefly, cells were seeded into two (or one) 100 mm dish(es) at a density of 2 × 10^6 cells/dish and incubated at 37 °C overnight. On the next day, cells were treated with 100 μM of DNIC–COOH (or 100 μM of DNIC–COOH to N2a and 75 μM of DNIC–COOH to HCEC) and incubated for 0, 0.5, 1, 2, 3, 4, 8, and 24 h, respectively. After removal of the supernatant solution, cells were washed with DPBS before addition of 1 mL of trypsin (0.05%)/EDTA (0.53 mM) and incubation for 5 min at 37 °C. After the obtained cell suspension solutions from two 100 mm dishes were combined and centrifuged at 100g for 5 min, the supernatant was removed before addition of 100 μL of αMEM to DNIC-treated MSC (or MEM to DNIC-treated N2a and HSFM to DNIC-treated HCEC). This solution was then transferred into EPR quartz tube and frozen in N2(l) before the EPR measurements. For each measured EPR spectrum, double integration was executed to obtain the integrated EPR intensity under each condition. Moreover, time-dependent decay of integrated EPR signal intensity after treatment of DNIC–COOH was fit to pseudo-first-order kinetics in order to determine the intracellular half-life for EPR-active mononuclear DNIC. Three independent experiments were executed to measure the average half-life for intracellular decomposition of EPR-active mononuclear DNIC after treatment with DNIC–COOH at 37 °C. On the other hand, at the time point with maximum integrated EPR signal intensity, spin quantitation of intracellular EPR-active DNICs was performed using mononuclear DNIC [PPN][(NO)2Fe(S5)] as a standard according to the methodology used in the previous work.[50] Cellular uptake of DNIC–COOMe (2.5 μM to MSC, 10 μM to N2a, or 1 μM to HCEC) and intracellular formation/decomposition of EPR-active mononuclear DNICs were investigated using EPR spectroscopy in a similar manner.
Studies of cellular uptake mechanisms were investigated using EPR spectroscopy in combination with pretreatments of alternative inhibitors. After the MSC cells were seeded into two (or one) 100 mm dish(es) at a density of 2 × 10^6 cells/dish and incubated at 37 °C overnight, sequential treatments of 50 μM of NEM for 0.5 h and 100 μM of DNIC–COOH for 2 h were performed before the treated MSC cells were collected for EPR measurement following the procedure described above. […]

[2] = tested on: MSC/N2a/HCEC; assay: Cell viability (CCK-8) of MSC/N2a/HCEC treated with DNICs; assay type: cell-based; details: 24 h; for effect on cell viability: N2a/HCEC
Method: Cell viability study of MSC, N2a, and HCEC cells with or without the treatment of DNIC–COOH was performed using a Cell Counting Kit-8 (IMT Formosa New Materials Co., Ltd., Taiwan) according to the manufacturer’s protocol. Briefly, cells were seeded into a 96-well plate at a density of 4 × 10^3 cells/well for MSC, 1 × 10^4 cells/well for N2a, and 8 × 10^3 cells/well for HCEC, respectively, and incubated overnight. On the next day, cells were treated with DNIC–COOH at different concentrations and incubated for 24 h. The culture medium was then removed before the cells were washed with DPBS. After addition of fresh medium containing CCK-8 solution to the cells and incubation for 1–3 h, the absorbance at 450 nm was then measured on a microplate reader (SpectraMax iD3, Molecular Devices, San Jose, CA) with a reference wavelength of 650 nm. Three independent experiments were executed, and the results were represented as mean ± SEM% (n = 3) with the untreated cells (control) as 100% viability. Cell viability studies of MSC/N2a/HCEC cells (1) with the treatment of DNIC–COOMe for 24 h, (2) with the treatment of NEM for 0.5 h, (3) with the treatment of chlorpromazine (CPZ; TCI) for 0.5 h, (4) with the treatment of methyl-β-cyclodextrin (MβCD; Thermo Fisher Scientific) for 0.5 h, (5) with the treatment of genistein (Alfa Chemistry) for 0.5 h, (6) with the sequential treatments of ODQ for 1 h and DNIC–COOH for 3 h (MSC)/10 h (N2a)/6 h (HCEC), and (7) with the cotreatment of PTIO and DNIC–COOH for 3 h (MSC)/10 h (N2a)/6 h (HCEC), respectively, were performed in a similar manner. In addition to CCK-8 assay, a live/dead staining was performed using a ViaQuant Viability/Cytotoxicity Kit (GeneCopoeia, Rockville, MD) according to the manufacturer’s instruction.

[3] = target: T1, metMb (Equus caballus, UniProt P68082); assay: Transfer of NO− to metMb yielding MbNO (UV–vis); assay type: biochemical; details: for reaction time for complete conversion of metMb into MbNO: metMb 5 μM/Cys 200 μM, generated [(NO)2Fe(SR)(SCys)]n−, phosphate buffer (pH 7.4), anaerobic; for change of UV–vis absorption bands of metMb (NO−-transfer): metMb in the presence of BSA (50 mg/mL)
T1 construct: purchased Sigma
T1 sequence (P68082 2-154 limits assumed): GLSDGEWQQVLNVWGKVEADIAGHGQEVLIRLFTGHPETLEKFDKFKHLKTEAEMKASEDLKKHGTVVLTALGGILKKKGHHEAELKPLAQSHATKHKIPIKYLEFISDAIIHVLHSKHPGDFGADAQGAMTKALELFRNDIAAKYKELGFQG
Method: After addition of 30 μL of 500 μM stock solution of DNIC–COOH (in DMSO) to a 4 mL quartz cuvette containing 5 μM metMb and 200 μM Cys in 3 mL of 25 mM PBS (pH 7.4), UV–vis spectra for this mixture solution were measured every 30 min. Transformation of […] into MbNO was achieved after reaction for 4 h based on the complete shift of UV–vis absorption bands from (410, 502, and 629) nm to (419, 548, and 578) nm.
Reactions of (a) 5 μM of DNIC–COOMe with 5 μM of metMb in the presence of 200 μM of Cys, (b) 5 μM of DNIC–COOH/DNIC–COOMe with 5 μM of deoxyMb in the presence of 200 μM of Cys, and (c) 5 μM of DNIC–COOH/DNIC–COOMe with 5 μM of metMb in the presence of 50 mg/mL BSA were performed under a similar manner.

For `COC(=O)CC[SH]1[Fe]([N]=O)([N]=O)[SH](CCC(=O)OC)[Fe]1([N]=O)[N]=O` (centres unmarked) [DNIC–COOMe, [(NO)2Fe(μ-SCH2CH2COOCH3)2Fe(NO)2]], the “relative whole-cell EPR signal intensity at gav = 2.03 (control = 100%)” value ([1]; MSC, native FBS replaced with 20% NEM-treated FBS) was 172.4 ± 24.1%, the “tmax for cellular uptake and intracellular transformation (whole-cell EPR)” value ([1]; MSC) was 0.5 h and the “relative whole-cell EPR signal intensity at gav = 2.03 (control = 100%)” value ([1]; MSC, pretreatment of NEM 0.5 h, then DNIC–COOMe 0.5 h, reduction) was 29.7 ± 16.3%. For the same compound, the “effect on cell viability” value [2] was “dose-dependent cell-proliferation effect”, the “reaction time for complete conversion of metMb into MbNO” value (from here on “reaction time for complete conversion”) [3] was 4.0 ^f h and the “reaction time for complete conversion” value ([3]; listed as DNIC-COOMe) was 4.0 h. For the same compound, the “change of UV–vis absorption bands of metMb (NO−-transfer)” value [3] was “no change”.
`O=[N][Fe]1([N]=O)[SH](CCC(=O)O)[Fe]([N]=O)([N]=O)[SH]1CCC(=O)O` (centres unmarked) [DNIC–COOH, [(NO)2Fe(μ-SCH2CH2COOH)2Fe(NO)2]] was tested, and the “relative whole-cell EPR signal intensity at gav = 2.03 (control = 100%)” value ([1]; CPZ-treated MSC) was 84.2 ± 11.0%, the “tmax for cellular uptake and intracellular transformation (whole-cell EPR)” value ([1]; MSC) was 2 h and the “biocompatibility in comparison with DNIC–COOMe” value ([2]; MSC/N2a/HCEC) was “improved biocompatibility”. The “effect on cell viability” value [2] was “dose-dependent cell-proliferation effect”, the “reaction time for complete conversion” value [3] was 4 h and 4.0 ^f h and the “reaction time for complete conversion” value ([3]; listed as DNIC-COOH) was 4.0 h. For the same compound, the “change of UV–vis absorption bands of metMb (NO−-transfer)” value [3] was “no change”.
